pIC50: −log10 of the molar value.
Biological target: Cezanne 1 (Homo sapiens (Human), UniProt Q6GQQ9)
Test: Cezanne 1 biochemical IC50 assay (fluorescence polarisation, TAMRA labelled peptide linked to ubiquitin)
Conditions: not given
Method: The Cezanne 1 construct was PCR amplified and cloned into a pFLAG-CMV-6c vector (Sigma-Aldrich) with an N-terminal FLAG tag. HEK293T cells were transfected with FLAG-Cezanne 1 using TransIT-LT1 transfection reagent (Mirus) according to the manufacturer's instructions. Cells were harvested 48 hours after transfection. […] The resin was washed two times with low salt buffer and one time with high salt buffer (20 mM Tris, pH 7.5, 500 mM NaCl, 0.5 mM EDTA, 5 mM beta-mercaptoethanol, protease inhibitors (complete mini, Roche) and phosphatase inhibitors (PhosSTOP mini, Roche). To elute the bound Cezanne 1, elution buffer (10 mM Tris, pH 7.5, 150 mM NaCl, 0.5 mM EDTA, 10% glycerol, 0.5% NP40, 5 mM beta-mercaptoethanol, 0.15 mg/ml 3× FLAG peptide (Sigma-Aldrich)) was added to the resin and incubated at 4° C. for 2.5 hours while rotating. The resin was centrifuged at 4000 rpm for 30 seconds, and the supernatant containing purified FLAG-Cezanne 1 was removed and stored at −80° C. […] Dilution plates were prepared at 21 times the final concentration (2100 μM for a final concentration of 100 μM) in 50% DMSO in a 96-well polypropylene V-bottom plate (Greiner #651201). […] Reactions were performed in duplicate in black 384 well plates (small volume, Greiner 784076) in a final reaction volume of 21 μl. Either 1 μl of 50% DMSO or diluted compound was added to the plate. Cezanne 1 was diluted in reaction buffer (40 mM Tris, pH 7.5, 0.005% Tween 20, 0.5 mg/ml BSA, 5 mM—beta-mercaptoethanol) to the equivalent of 0.005 μl/well and 10 μl of diluted Cezanne 1 was added to the compound. Enzyme and compound were incubated for 30 min at room temp. Reactions were initiated by the addition of 50 nM of TAMRA labelled peptide linked to ubiquitin via an iso-peptide bond as fluorescence polarisation substrate. Reactions were read immediately after addition of substrate and following a 2 hr incubation at room temperature. Readings were performed on a Pherastar Plus (BMG Labtech). λ Excitation 540 nm; λ Emission 590 nm.

Chain of Cezanne 1 (Q6GQQ9 whole entry): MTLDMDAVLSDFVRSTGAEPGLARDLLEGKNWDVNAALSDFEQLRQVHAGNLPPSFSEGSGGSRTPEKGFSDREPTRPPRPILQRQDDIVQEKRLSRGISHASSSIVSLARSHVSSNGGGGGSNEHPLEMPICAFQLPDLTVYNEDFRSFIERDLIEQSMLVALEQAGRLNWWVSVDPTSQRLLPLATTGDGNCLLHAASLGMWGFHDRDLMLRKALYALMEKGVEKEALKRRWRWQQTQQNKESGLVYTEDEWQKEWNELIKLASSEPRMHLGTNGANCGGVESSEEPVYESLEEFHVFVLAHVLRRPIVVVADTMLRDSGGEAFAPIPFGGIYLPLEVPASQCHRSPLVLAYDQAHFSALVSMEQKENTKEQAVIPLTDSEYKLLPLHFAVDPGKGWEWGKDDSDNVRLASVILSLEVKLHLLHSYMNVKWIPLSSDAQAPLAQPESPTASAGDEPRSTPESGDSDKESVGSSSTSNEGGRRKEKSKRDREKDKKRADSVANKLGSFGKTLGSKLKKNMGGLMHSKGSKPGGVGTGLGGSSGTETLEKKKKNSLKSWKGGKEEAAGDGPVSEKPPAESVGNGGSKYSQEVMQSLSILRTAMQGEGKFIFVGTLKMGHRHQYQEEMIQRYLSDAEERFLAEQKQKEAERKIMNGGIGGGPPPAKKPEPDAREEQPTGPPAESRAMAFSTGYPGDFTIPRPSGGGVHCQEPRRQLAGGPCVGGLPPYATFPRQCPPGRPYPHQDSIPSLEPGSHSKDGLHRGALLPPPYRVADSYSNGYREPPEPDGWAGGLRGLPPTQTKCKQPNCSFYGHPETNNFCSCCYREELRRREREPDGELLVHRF

SMILES | pIC50
N#CN1CCC2(Cc3ccc(Cl)cc3NC2=O)C1 (stereo not shown) [Example 2, 7′-Chloro-2′-oxo-1′,4′-dihydro-2′H-spiro[pyrrolidine-3,3′-quinoline]-1-carbonitrile] | 5.00 to 6.00

Same assay, conditions: Cezanne 1 biochemical IC50 assay; 30 min pre-incubation, read after 2 hr at room temperature; read-out: IC50 range

SMILES | pIC50
N#CN1CCC2(Cc3ccc(-c4ccc(Oc5ccccc5)cc4)cc3NC2=O)C1 (stereo not shown) [Example 11, 2′-Oxo-7′-(4-phenoxyphenyl)-1′,4′-dihydro-2′H-spiro[pyrrolidine-3,3′-quinoline]-1-carbonitrile] | 5.00 to 6.00
N#CN1CC[C@]2(CCNC2=O)C1 [Example 63, (R)-6-Oxo-2,7-diazaspiro[4.4]nonane-2-carbonitrile] | 5.00 to 6.00
N#CN1CCC2(Cc3ccc(-c4ccc(C(=O)N5CCOCC5)cc4)cc3NC2=O)C1 (stereo not shown) [Example 37, 7′-(4-(Morpholine-4-carbonyl)phenyl)-2′-oxo-1′,4′-dihydro-2′H-spiro[pyrrolidine-3,3′-quinoline]-1-carbonitrile] | 5.00 to 6.00
N#CN1CCC2(Cc3ccc(-c4cc(OC(F)(F)F)ccc4Cl)cc3NC2=O)C1 (stereo not shown) [Example 14, 7′-(2-Chloro-5-(trifluoromethoxy)phenyl)-2′-oxo-1′,4′-dihydro-2′H-spiro[pyrrolidine-3,3′-quinoline]-1-carbonitrile] | 5.00 to 6.00
CCC1CC2(CCN(C#N)C2)C(=O)N1 (stereo not shown) [Example 80, 8-Ethyl-6-oxo-2,7-diazaspiro[4.4]nonane-2-carbonitrile] | < 5.00
CNC(=O)c1ccc2c(c1)NC(=O)C1(CCN(C#N)C1)C2 (stereo not shown) [Example 47, 1-Cyano-N-methyl-2′-oxo-1′,4′-dihydro-2′H-spiro[pyrrolidine-3,3′-quinoline]-7′-carboxamide] | 5.00 to 6.00
CC(=O)Nc1ccc(-c2ccc3c(c2)NC(=O)C2(CCN(C#N)C2)C3)cc1 (stereo not shown) [Example 31, N-(4-(1-Cyano-2′-oxo-1′,4′-dihydro-2′H-spiro[pyrrolidine-3,3′-quinolin]-7′-yl)phenyl)acetamide] | 5.00 to 6.00
N#CN1CCC2(Cc3cc(-c4cccc(N5CCCCC5)c4)ccc3NC2=O)C1 (stereo not shown) [Example 118, 2′-Oxo-6′-(3-(piperidin-1-yl)phenyl)-1′,4′-dihydro-2′H-spiro[pyrrolidine-3,3′-quinoline]-1-carbonitrile] | 6.00 to 7.00
N#CN1CCC2(C1)Nc1cccnc1NC2=O (stereo not shown) [Example 61, 3-Oxo-3,4-dihydro-1H-spiro[pyrido[2,3-b]pyrazine-2,3′-pyrrolidine]-1′-carbonitrile] | 5.00 to 6.00
Cc1n[nH]cc1-c1ccc2c(c1)NC(=O)C1(CCN(C#N)C1)C2 (stereo not shown) [Example 27, 7′-(3-Methyl-1H-pyrazol-4-yl)-2′-oxo-1′,4′-dihydro-2′H-spiro[pyrrolidine-3,3′-quinoline]-1-carbonitrile] | 5.00 to 6.00
N#CN1CCC2(Cc3ccc(-c4cccc(S(=O)(=O)N5CCOCC5)c4)cc3NC2=O)C1 (stereo not shown) [Example 38, 7′-(3-(Morpholinosulfonyl)phenyl)-2′-oxo-1′,4′-dihydro-2′H-spiro[pyrrolidine-3,3′-quinoline]-1-carbonitrile] | 5.00 to 6.00
Cn1cc(-c2ccc3c(c2)NC(=O)C2(CCN(C#N)C2)C3)ccc1=O (stereo not shown) [Example 39, 7′-(1-Methyl-6-oxo-1,6-dihydropyridin-3-yl)-2′-oxo-1′,4′-dihydro-2′H-spiro[pyrrolidine-3,3′-quinoline]-1-carbonitrile] | 5.00 to 6.00

More lines, now with the values ahead:

pIC50 | SMILES
5.00 to 6.00 | N#CN1CCC2(Cc3ccc(-c4ccccc4)cc3NC2=O)C1 (stereo not shown) [Example 4, 2′-Oxo-7′-phenyl-1′,4′-dihydro-2′H-spiro[pyrrolidine-3,3′-quinoline]-1-carbonitrile]
5.00 to 6.00 | N#CN1CCC2(C1)NC(=O)C(c1ccccc1)NC2=O (stereo not shown) [Example 79, 7,10-Dioxo-8-phenyl-2,6,9-triazaspiro[4.5]decane-2-carbonitrile]
6.00 to 7.00 | N#CN1CCC2(Cc3cc(-c4ccc(S(=O)(=O)N5CCOCC5)cc4)ccc3NC2=O)C1 (stereo not shown) [Example 116, 6′-(4-(Morpholinosulfonyl)phenyl)-2′-oxo-1′,4′-dihydro-2′H-spiro[pyrrolidine-3,3′-quinoline]-1-carbonitrile]
6.00 to 7.00 | CC(=O)Nc1ccccc1-c1ccc2c(c1)NC(=O)C1(CCN(C#N)C1)C2 (stereo not shown) [Example 36, N-(2-(1-Cyano-2′-oxo-1′,4′-dihydro-2′H-spiro[pyrrolidine-3,3′-quinolin]-7′-yl)phenyl)acetamide]
6.00 to 7.00 | Cn1cc(-c2ccc3c(c2)CC2(CCN(C#N)C2)C(=O)N3)cn1 (stereo not shown) [Example 97, 6′-(1-Methyl-1H-pyrazol-4-yl)-2′-oxo-1′,4′-dihydro-2′H-spiro[pyrrolidine-3,3′-quinoline]-1-carbonitrile]
6.00 to 7.00 | N#Cc1ccc(-c2cnc3c(c2)NC(=O)[C@@]2(CCN(C#N)C2)O3)cc1 [Example 70, (S)-7-(4-Cyanophenyl)-2-oxo-1,2-dihydrospiro[pyrido[2,3-b][1,4]oxazine-3,3′-pyrrolidine]-1′-carbonitrile]
6.00 to 7.00 | N#CN1CCC2(C1)Oc1nc(C(=O)Nc3ccccc3)ccc1NC2=O (stereo not shown) [Example 143, 1′-Cyano-2-oxo-N-phenyl-1,2-dihydrospiro[pyrido[2,3-b][1,4]oxazine-3,3′-pyrrolidine]-6-carboxamide]
6.00 to 7.00 | CN(C)C(=O)c1cccc(-c2ccc3c(c2)NC(=O)C2(CCN(C#N)C2)C3)c1 (stereo not shown) [Example 30, 3-(1-Cyano-2′-oxo-1′,4′-dihydro-2′H-spiro[pyrrolidine-3,3′-quinolin]-7′-yl)-N,N-dimethylbenzamide]
6.00 to 7.00 | CC(C)Oc1ccc(F)cc1-c1ccc2c(c1)CC1(CCN(C#N)C1)C(=O)N2 (stereo not shown) [Example 104, 6′-(5-Fluoro-2-isopropoxyphenyl)-2′-oxo-1′,4′-dihydro-2′H-spiro[pyrrolidine-3,3′-quinoline]-1-carbonitrile]
6.00 to 7.00 | N#CN1CCC2(Cc3ccc(-c4cccc5[nH]ncc45)cc3NC2=O)C1 (stereo not shown) [Example 133, 7′-(1H-Indazol-4-yl)-2′-oxo-1′,4′-dihydro-2′H-spiro[pyrrolidine-3,3′-quinoline]-1-carbonitrile]
> 7.00 | N#CN1CCC2(C1)Oc1ncc(-c3cccc4c3cnn4CCO)cc1NC2=O (stereo not shown) [Example 137, 7-(1-(2-Hydroxyethyl)-1H-indazol-4-yl)-2-oxo-1,2-dihydrospiro[pyrido[2,3-b][1,4]oxazine-3,3′-pyrrolidine]-1′-carbonitrile]
6.00 to 7.00 | N#CN1CC[C@@]2(C1)Oc1ncc(-c3ccc(F)cc3)cc1NC2=O [Example 74, (S)-7-(4-Fluorophenyl)-2-oxo-1,2-dihydrospiro[pyrido[2,3-b][1,4]oxazine-3,3′-pyrrolidine]-1′-carbonitrile]
6.00 to 7.00 | N#CN1CC[C@@]2(C1)Nc1ncc(-c3ccc(F)cc3)cc1NC2=O [Example 72, (S)-7-(4-Fluorophenyl)-2-oxo-1,4-dihydro-2H-spiro[pyrido[2,3-b]pyrazine-3,3′-pyrrolidine]-1′-carbonitrile]
6.00 to 7.00 | COc1ccc(-c2ccc3c(c2)CC2(CCN(C#N)C2)C(=O)N3)cn1 (stereo not shown) [Example 103, 6′-(6-Methoxypyridin-3-yl)-2′-oxo-1′,4′-dihydro-2′H-spiro[pyrrolidine-3,3′-quinoline]-1-carbonitrile]
6.00 to 7.00 | N#CN1CCC2(C1)Oc1nc(C(=O)Nc3ccccc3F)ccc1NC2=O (stereo not shown) [Example 144, 1′-Cyano-N-(2-fluorophenyl)-2-oxo-1,2-dihydrospiro[pyrido[2,3-b][1,4]oxazine-3,3′-pyrrolidine]-6-carboxamide]

From patent publication US10654853B2, “Spiro-condensed pyrrolidine derivatives as deubiquitylating enzymes (DUB) inhibitors” (MISSION THERAPEUTICS LIMITED, priority 2016, dated 2020)
